Experimental data as given in ChEMBL document CHEMBL1201862, “PubChem BioAssay data set” (2004).
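Protocol summary: plate cells (96-well), add compound at 5 concentrations, incubate 48 h, interpolate endpoints linearly. GI50 marks 50% less growth.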 Active and inactive are the calls of the source. Cut-off read from the data, not from the text of the source: active = GI50 up to about 1.1 µM and inactive = higher.

What was measured:
Experiment in all cases: NCI tumour cell line growth inhibition, 48 h
786-0 = system: 786-0
A498 = system: A498
A549 = system: A549
BT-549 = system: BT-549
COLO 205 = system: COLO 205
EKVX = system: EKVX
Hs-578T = system: Hs-578T
M14 = system: M14
MDA-MB-231 = system: MDA-MB-231
NCI-H226 = system: NCI-H226
NCI-H460 = system: NCI-H460
NCI/ADR-RES = system: NCI/ADR-RES
OVCAR-8 = system: OVCAR-8
SK-MEL-2 = system: SK-MEL-2
SN12C = system: SN12C
SNB-19 = system: SNB-19
SW-620 = system: SW-620
TK-10 = system: TK-10
U-251 = system: U-251
RXF 393 = system: RXF 393

Measured: GI50

Cc1ccc(CC2(OCCN(C)C)CCC(C(C)(C)C)CC2)cc1 (stereo not drawn)
inactive: 786-0 1.99 µM | A498 13 µM | A549 3.6 µM | BT-549 4.61 µM | COLO 205 2.05 µM | EKVX 6.14 µM | Hs-578T 12.1 µM | M14 1.79 µM | MDA-MB-231 6.01 µM | NCI-H226 5.78 µM | NCI-H460 1.99 µM | NCI/ADR-RES 6.73 µM | OVCAR-8 4.62 µM | SK-MEL-2 1.97 µM | SN12C 4.8 µM | SNB-19 4.39 µM | SW-620 2.25 µM | TK-10 4.47 µM | U-251 2.34 µM

CC1(C)CCN2C(=O)C34CCCC3CC21S4 (stereo not drawn)
inactive: 786-0 > 100 µM | A498 > 100 µM | A549 > 100 µM | BT-549 > 100 µM | COLO 205 > 100 µM | EKVX > 100 µM | Hs-578T > 100 µM | M14 > 100 µM | MDA-MB-231 > 100 µM | NCI-H226 > 100 µM | NCI/ADR-RES > 100 µM | OVCAR-8 > 100 µM | RXF 393 > 100 µM | SK-MEL-2 > 100 µM | SN12C > 100 µM | SNB-19 > 100 µM | SW-620 > 100 µM | TK-10 > 100 µM | U-251 > 100 µM

CC1=NN(C(=O)CC(=O)Nc2cccc(C)c2)C(=O)C1/N=N/c1ccc(C(=O)O)cc1 (stereo not drawn)
inactive: 786-0 > 100 µM | A498 > 100 µM | A549 > 100 µM | BT-549 > 100 µM | COLO 205 > 100 µM | EKVX > 100 µM | Hs-578T > 100 µM | M14 > 100 µM | MDA-MB-231 > 100 µM | NCI/ADR-RES > 100 µM | OVCAR-8 > 100 µM | RXF 393 > 100 µM | SK-MEL-2 > 100 µM | SN12C > 100 µM | SNB-19 > 100 µM | SW-620 > 100 µM | TK-10 > 100 µM | U-251 > 100 µM

Nc1nc2c(ncn2Cc2ccccc2CO)c(=O)[nH]1
inactive: 786-0 > 100 µM | A498 > 100 µM | A549 > 100 µM | BT-549 > 100 µM | COLO 205 > 100 µM | EKVX > 100 µM | Hs-578T > 100 µM | M14 > 100 µM | MDA-MB-231 > 100 µM | NCI-H226 > 100 µM | NCI-H460 > 100 µM | NCI/ADR-RES > 100 µM | OVCAR-8 > 100 µM | SK-MEL-2 > 100 µM | SN12C > 100 µM | SNB-19 > 100 µM | SW-620 > 100 µM | TK-10 > 100 µM | U-251 > 100 µM

Cc1cc(NC(=O)C(=O)Cc2cnc3ccccc3n2)c(S(=O)(=O)O)cc1Cl
inactive: 786-0 > 100 µM | A498 > 100 µM | A549 > 100 µM | BT-549 > 100 µM | COLO 205 > 100 µM | EKVX > 100 µM | Hs-578T > 100 µM | M14 > 100 µM | MDA-MB-231 > 100 µM | NCI-H226 > 100 µM | NCI-H460 > 100 µM | NCI/ADR-RES > 100 µM | OVCAR-8 > 100 µM | SK-MEL-2 > 100 µM | SN12C > 100 µM | SNB-19 > 100 µM | SW-620 > 100 µM | TK-10 > 100 µM | U-251 > 100 µM

CSc1ccc(/C=C2\N=C(c3ccccc3)N(/N=C3\C(=O)Nc4ccccc43)C2=O)cc1
inactive: 786-0 > 100 µM | A498 > 100 µM | A549 > 100 µM | BT-549 > 100 µM | COLO 205 > 100 µM | EKVX 38.7 µM | Hs-578T > 100 µM | M14 > 100 µM | MDA-MB-231 > 100 µM | NCI-H460 > 100 µM | NCI/ADR-RES > 100 µM | OVCAR-8 88.3 µM | RXF 393 > 100 µM | SK-MEL-2 > 100 µM | SN12C > 100 µM | SNB-19 > 100 µM | SW-620 > 100 µM | TK-10 > 100 µM | U-251 > 100 µM

CCCCCC/C=C\CCCCCCCCCc1c(O)c(OC)cc(O)c1CN(C)C
inactive: 786-0 1.7 µM | A498 17 µM | A549 4.04 µM | BT-549 9.2 µM | COLO 205 1.92 µM | EKVX 10.7 µM | Hs-578T 2.7 µM | M14 11.4 µM | MDA-MB-231 14.5 µM | NCI-H226 17 µM | NCI-H460 3.67 µM | NCI/ADR-RES 5.89 µM | OVCAR-8 4.06 µM | SK-MEL-2 20.7 µM | SN12C 4.83 µM | SNB-19 12.9 µM | SW-620 2.93 µM | TK-10 14.6 µM | U-251 3.73 µM

O=C1C=C(C2=CC(=O)C(=O)c3ccccc32)c2ccccc2C1=O
inactive: 786-0 13 µM | A498 46.6 µM | A549 35.6 µM | BT-549 46.6 µM | COLO 205 18 µM | EKVX 34.8 µM | Hs-578T 27.7 µM | M14 6.46 µM | MDA-MB-231 15.6 µM | NCI-H226 38.5 µM | NCI/ADR-RES 23.2 µM | OVCAR-8 20.2 µM | RXF 393 10.9 µM | SK-MEL-2 19.5 µM | SN12C 27 µM | SNB-19 29.7 µM | SW-620 5.01 µM | TK-10 7.46 µM | U-251 5.47 µM

Nc1ccc(Nc2cc(=O)[nH]c(=O)[nH]2)cc1Cl
inactive: 786-0 > 100 µM | A498 > 100 µM | A549 > 100 µM | BT-549 > 100 µM | COLO 205 > 100 µM | Hs-578T > 100 µM | M14 > 100 µM | MDA-MB-231 > 100 µM | NCI-H226 > 100 µM | NCI-H460 > 100 µM | NCI/ADR-RES > 100 µM | OVCAR-8 > 100 µM | SK-MEL-2 > 100 µM | SN12C > 100 µM | SNB-19 > 100 µM | SW-620 > 100 µM | TK-10 > 100 µM | U-251 > 100 µM

CCOP(=O)(OCC)C(Cc1ccc(Cl)cc1)NS(=O)(=O)c1ccc(C)cc1 (stereo not drawn)
inactive: 786-0 > 100 µM | A498 > 100 µM | A549 > 100 µM | BT-549 > 100 µM | COLO 205 > 100 µM | EKVX > 100 µM | Hs-578T > 100 µM | M14 > 100 µM | MDA-MB-231 > 100 µM | NCI-H460 > 100 µM | NCI/ADR-RES > 100 µM | OVCAR-8 > 100 µM | RXF 393 > 100 µM | SK-MEL-2 > 100 µM | SN12C 67.6 µM | SNB-19 > 100 µM | SW-620 > 100 µM | TK-10 > 100 µM | U-251 > 100 µM
